System: HCV genotype 1a replicon cell line
Assay: HCV Genotype 1a Replicon Assay
Format: cell-based
Conditions: Hepatitis C virus, Huh7.5 cell background, NS3-specific protease activity in lysates, 48 or 72 hours, read-out: pEC50 Genotype 1a (converted)
Experimental: Assay 2: HCV Genotype 1a Replicon Assay
The HCV genotype 1a replicon cell line was obtained from Apath LLC (APC89; Huh7.5 cell background). This subgenomic replicon contains the N-terminus of the HCV core protein fused to the neomycin-resistance selectable marker. The EMCV IRES lies downstream and drives expression of the non-structural proteins NS3-NS5B. Compound potencies were determined using the NS3-specific protease activity in lysates as a measurement of compound inhibition of replicon levels.
Cells were grown at 37° C. in a 5% CO2 humidified incubator in DMEM (Invitrogen) with 10% FBS (HyClone), 1×NEAA (Invitrogen), 1× Pen-Strep (Invitrogen), and 850 μg/mL G418 (Invitrogen). On day 1 of the assay, cells were plated at 15,000 cells/well in black 96-well tissue culture plates (Costar) in 200 μL media lacking G418. […] Compounds were initially diluted in DMSO and then diluted another 200× in media to bring the final DMSO concentration down to 0.5%. The cells were incubated with test compounds for 48 or 72 hours. At the end of the incubation period, media and compound were removed from the plates.
To determine the NS3-specific protease activity in lysates, the cells were lysed at room temperature in 50 μL/well of 50 mM Hepes pH 7.5, 150 mM NaCl, 15% Glycerol, 0.15% Triton X-100, 10 mM DTT for 20 minutes with shaking. 50 μL of an NS3/4a protease-specific FRET substrate (Anaspec RET S1 Cat#22991) was then added to the wells at a final concentration of 15 μM. The plates were incubated at 37° C. for 20 minutes, which corresponds to a timepoint at which the protease activity is still in the linear phase. Protease activity was determined by measuring fluorescence (Excitation: 340 nm; Emission: 509 nm).
To analyze the data, the fluorescence was plotted vs. the compound concentration, and EC50 values were determined from a 4-parameter robust fit model using GraphPad Prism software.

Compound | EC50 [nM]
COC(=O)N[C@H](C(=O)N1CC(C)=C[C@H]1c1nc(-c2ccc(-c3cc(Cl)c(NC(=O)c4ccc(N5CCN(C(=O)C(C)(C)C)C[C@H]5C)nc4)cc3OC(F)(F)F)cc2)c[nH]1)C(C)C [Example 1, [(S)-1-((S)-2-{4-[5′-Chloro-4′-({6-[(R)-4-(2,2-dimethyl-propionyl)-2-methyl-piperazin-1-yl]-pyridine-3-carbonyl}-amino)-2′-trifluoromethoxy-biphenyl-4-yl]-1H-imidazol-2-yl}-4-methyl-2,5-dihydro-pyrrole-1-carbonyl)-2-methyl-propyl]-carbamic acid methyl ester] | < 0.1
COC(=O)N[C@H](C(=O)N1CC(C)CC[C@H]1c1nc(-c2ccc(-c3cc(Cl)c(NC(=O)c4ccc(N5CCN(C(=O)C(C)(C)C)C[C@H]5C)nc4)cc3OC(F)(F)F)cc2)c[nH]1)C(C)C (stereo partly drawn) [Example 1-5] | 0.1 to 1
COC(=O)N[C@H](C(=O)N1CC(C)=C[C@H]1c1nc(-c2ccc(-c3cc(Cl)c(NC(=O)c4ccc(N5CCN(C(=O)[C@H]6CC6(C)C)C[C@H]5C)nc4)cc3OC(F)(F)F)cc2)c[nH]1)C(C)C [Example 2, ((S)-1-{(S)-2-[4-(5′-Chloro-4′-{[6-((R)-4-(S)-2,2-dimethylcyclopropanecarbonyl-2-methyl-piperazin-1-yl)-pyridine-3-carbonyl]-amino}-2′-trifluoromethoxy-biphenyl-4-yl)-1H-imidazol-2-yl]-4-methyl-2,5-dihydro-pyrrole-1-carbonyl}-2-methyl-propyl)-carbamic acid methyl ester] | < 0.1
COC(=O)N[C@H](C(=O)N1CC(C)=C[C@H]1c1nc(-c2ccc(-c3ccc(C(=O)Nc4ccc(N5CC(C)N(C(=O)C6CC6)C[C@H]5C)nc4)cc3OC(F)(F)F)cc2)c[nH]1)C(C)C (stereo partly drawn) [Example 2-1] | 0.1 to 1
CNC(=O)N1C[C@@H](C)N(c2ccc(NC(=O)c3ccc(-c4ccc(-c5c[nH]c([C@@H]6C=C(C)CN6C(=O)[C@@H](NC(=O)OC)C(C)C)n5)cc4)c(OC(F)(F)F)c3)cn2)CC1C (stereo partly drawn) [Example 2-2] | 0.1 to 1
COC(=O)N[C@H](C(=O)N1CC(C)=C[C@H]1c1nc(-c2ccc(-c3ccc(C(=O)Nc4ccc(N5CC(C)N(C(=O)C(C)(C)C)C[C@H]5C)nc4)cc3OC(F)(F)F)cc2)c[nH]1)C(C)C (stereo partly drawn) [Example 2-3] | 0.1 to 1
COC(=O)N[C@H](C(=O)N1CC(C)=C[C@H]1c1nc(-c2ccc(-c3ccc(C(=O)Nc4ccc(N5CC(C)N(C(=O)CNC(C)=O)C[C@H]5C)nc4)cc3OC(F)(F)F)cc2)c[nH]1)C(C)C (stereo partly drawn) [Example 2-5] | 0.1 to 1
COC(=O)N[C@H](C(=O)N1CC(C)=C[C@H]1c1nc(-c2ccc(-c3ccc(C(=O)Nc4ccc(N5CC(C)N(C(=O)C6(O)CC6(C)C)C[C@H]5C)nc4)cc3OC(F)(F)F)cc2)c[nH]1)C(C)C (stereo partly drawn) [Example 2-6] | 0.1 to 1
COC(=O)N[C@H](C(=O)N1CC(C)=C[C@H]1c1nc(-c2ccc(-c3ccc(C(=O)Nc4ccc(N5CC(C)N(C(=O)C6CC6(Cl)Cl)C[C@H]5C)nc4)cc3OC(F)(F)F)cc2)c[nH]1)C(C)C (stereo partly drawn) [Example 2-7] | 0.1 to 1
COC(=O)N[C@H](C(=O)N1CC(C)=C[C@H]1c1nc(-c2ccc(-c3ccc(C(=O)Nc4ccc(N5CC(C)N(C(=O)C(C)(C)NC(=O)C6CCC6)C[C@H]5C)nc4)cc3OC(F)(F)F)cc2)c[nH]1)C(C)C (stereo partly drawn) [Example 2-9] | 0.1 to 1
COC(=O)N[C@H](C(=O)N1CC(C2CC2)=C[C@H]1c1nc(-c2ccc(-c3cc(Cl)c(NC(=O)c4ccc(N5CCN(C(=O)C(C)(C)C)C[C@H]5C)nc4)cc3OC(F)(F)F)cc2)c[nH]1)C(C)C [Example 3, [(S)-1-((S)-2-{4-[5′-Chloro-4′-({6-[(R)-4-(2,2-dimethyl-propionyl)-2-methyl-piperazin-1-yl]-pyridine-3-carbonyl}-amino)-2′-trifluoromethoxy-biphenyl-4-yl]-1H-imidazol-2-yl}-4-cyclopropyl-2,5-dihydro-pyrrole-1-carbonyl)-2-methyl-propyl]-carbamic acid methyl ester] | < 0.1
[2H]C([2H])([2H])C1(C([2H])([2H])[2H])CC1C(=O)N1C[C@@H](C)N(c2ccc(NC(=O)c3ccc(-c4ccc5c(ccc6[nH]c([C@@H]7C[C@H](C)CN7C(=O)[C@@H](NC(=O)OC)C(C)C)nc65)c4)c(OC(F)(F)F)c3)cn2)CC1C (stereo partly drawn) [Example 3-8] | < 0.1
COC(=O)N[C@H](C(=O)N1C[C@@H](C)C[C@H]1c1nc2c(ccc3cc(-c4ccc(C(=O)Nc5ccc(N6CC(C)N(C(=O)C(C)(C)C)C[C@H]6C)nc5)cc4OC(F)(F)F)ccc32)[nH]1)C(C)C (stereo partly drawn) [Example 3-9] | < 0.1
COC(=O)N[C@H](C(=O)N1C[C@@H](C)C[C@H]1c1nc2c(ccc3cc(-c4ccc(C(=O)Nc5ccc(N6CC(C)N(C(=O)N(C)C)C[C@H]6C)nc5)cc4OC(F)(F)F)ccc32)[nH]1)C(C)C (stereo partly drawn) [Example 3-10] | < 0.1
COC(=O)N[C@H](C(=O)N1C[C@@H](C)C[C@H]1c1nc2c(ccc3cc(-c4ccc(C(=O)Nc5ccc(N6CC(C)N(C(=O)C7CC7)C[C@H]6C)nc5)cc4OC(F)(F)F)ccc32)[nH]1)C(C)C (stereo partly drawn) [Example 3-11] | < 0.1
COC(=O)N[C@H](C(=O)N1[C@@H]2CC[C@@H](C2)[C@H]1c1nc(-c2ccc(-c3cc(Cl)c(NC(=O)c4ccc(N5CCN(C(=O)C(C)(C)C)C[C@H]5C)nc4)cc3OC(F)(F)F)cc2)c[nH]1)C1CCOCC1 [Example 5-4] | < 0.1
COC(=O)N[C@H](C(=O)N1[C@@H]2CC[C@@H](C2)[C@H]1c1nc(-c2ccc(-c3cc(Cl)c(NC(=O)c4ccc(N5CCN(C(=O)C(C)(C)C)C[C@H]5C)nc4)cc3OC(F)(F)F)cc2)c[nH]1)C(C)C [Example 5-5] | 0.1 to 1
COC(=O)N[C@H](C(=O)N1[C@@H]2C[C@@H]2CC[C@H]1c1nc(-c2ccc(-c3cc(Cl)c(NC(=O)c4ccc(N5CCN(C(=O)[C@H]6CC6(C)C)C[C@H]5C)nc4)cc3OC(F)(F)F)cc2)c[nH]1)C(C)C [Example 5-8] | < 0.1
COC(=O)N[C@H](C(=O)N1[C@@H]2C[C@@H]2CC[C@H]1c1nc(-c2ccc(-c3cc(Cl)c(NC(=O)c4ccc(N5CCN(C(=O)C(C)(C)CO)C[C@H]5C)nc4)cc3OC(F)(F)F)cc2)c[nH]1)C(C)C [Example 5-9] | < 0.1
COC(=O)N[C@H](C(=O)N1C[C@H]2[C@@H]([C@H]1c1nc(-c3ccc(-c4cc(Cl)c(NC(=O)c5ccc(N6CCN(C(=O)C(C)(C)C)C[C@H]6C)nc5)cc4OC(F)(F)F)cc3)c[nH]1)C2(C)C)C(C)C [Example 5-11] | 0.1 to 1
COC(=O)N[C@H](C(=O)N1C[C@H]2[C@@H]([C@H]1c1nc(-c3ccc(-c4cc(Cl)c(NC(=O)c5ccc(N6CCN(C(=O)C(C)(C)C)C[C@H]6C)nc5)cc4OC(F)(F)F)cc3)c[nH]1)C2(C)C)C1CCOCC1 [Example 5-12] | 0.1 to 1
COC(=O)N[C@H](C(=O)N1C[Si](C)(C)C[C@H]1c1nc(-c2ccc(-c3cc(Cl)c(NC(=O)c4ccc(N5CCN(C(=O)C(C)(C)C)C[C@H]5C)nc4)cc3OC(F)(F)F)cc2)c[nH]1)C(C)C [Example 6, [(S)-1-((R)-5-{4-[5′-Chloro-4′-({6-[(R)-4-(2,2-dimethyl-propionyl)-2-methyl-piperazin-1-yl]-pyridine-3-carbonyl}-amino)-2′-trifluoromethoxy-biphenyl-4-yl]-1H-imidazol-2-yl}-3,3-dimethyl-[1,3]azasilolidine-1-carbonyl)-2-methyl-propyl]-carbamic acid methyl ester] | 0.1 to 1
COC(=O)N[C@H](C(=O)N1C[C@@H](C)CC[C@H]1c1nc(-c2ccc(-c3cc(Cl)c(NC(=O)c4ccc(N5CCN(C(=O)C(C)(C)CO)C[C@H]5C)nc4)cc3OC(F)(F)F)cc2)c[nH]1)C(C)C [Example 11, [(S)-1-((2S,5S)-2-{4-[5′-Chloro-4′-({6-[(R)-4-(3-hydroxy-2,2-dimethyl-propionyl)-2-methyl-piperazin-1-yl]-pyridine-3-carbonyl}-amino)-2′-trifluoromethoxy-biphenyl-4-yl]-1H-imidazol-2-yl}-5-methyl-piperidine-1-carbonyl)-2-methyl-propyl]-carbamic acid methyl ester] | 0.1 to 1
COC(=O)N[C@H](C(=O)N1CC(C2CC2)=C[C@H]1c1nc(-c2ccc(-c3ccc(C(=O)Nc4ccc(N5CCN(C(=O)C(C)(C)C)C[C@H]5C)nc4)cc3OC(F)(F)F)cc2)c[nH]1)C(C)C [Example 12, ((S)-1-{(S)-4-Cyclopropyl-2-[4-(4′-{6-[(R)-4-(2,2-dimethyl-propionyl)-2-methyl-piperazin-1-yl]-pyridin-3-ylcarbamoyl}-2′-trifluoromethoxy-biphenyl-4-yl)-1H-imidazol-2-yl]-2,5-dihydro-pyrrole-1-carbonyl}-2-methyl-propyl)-carbamic acid methyl ester] | 0.1 to 1
